This note sets out measurements from ChEMBL document CHEMBL1201862, “PubChem BioAssay data set” (2004).

The source made the active and inactive calls. Some results are limits rather than exact numbers.

Assay [1] has as its target Small ubiquitin-related modifier 2 (Homo sapiens, UniProt P61956). The assay is described as follows: SUMO2 binding disruption by SUMO1 hits – biochemical, FRET, human SUMO2, uHTS hits, selectivity assay for SUMO1 interaction inhibitor project, dose response (AID 624384). In kind it is functional. The note with it: read-out: IC50_Mean.
The target in a further assay is T1, Exodeoxyribonuclease V (Escherichia coli (strain K12), UniProt P04993+P07648+P08394).
T1 sequence (P04993 whole entry): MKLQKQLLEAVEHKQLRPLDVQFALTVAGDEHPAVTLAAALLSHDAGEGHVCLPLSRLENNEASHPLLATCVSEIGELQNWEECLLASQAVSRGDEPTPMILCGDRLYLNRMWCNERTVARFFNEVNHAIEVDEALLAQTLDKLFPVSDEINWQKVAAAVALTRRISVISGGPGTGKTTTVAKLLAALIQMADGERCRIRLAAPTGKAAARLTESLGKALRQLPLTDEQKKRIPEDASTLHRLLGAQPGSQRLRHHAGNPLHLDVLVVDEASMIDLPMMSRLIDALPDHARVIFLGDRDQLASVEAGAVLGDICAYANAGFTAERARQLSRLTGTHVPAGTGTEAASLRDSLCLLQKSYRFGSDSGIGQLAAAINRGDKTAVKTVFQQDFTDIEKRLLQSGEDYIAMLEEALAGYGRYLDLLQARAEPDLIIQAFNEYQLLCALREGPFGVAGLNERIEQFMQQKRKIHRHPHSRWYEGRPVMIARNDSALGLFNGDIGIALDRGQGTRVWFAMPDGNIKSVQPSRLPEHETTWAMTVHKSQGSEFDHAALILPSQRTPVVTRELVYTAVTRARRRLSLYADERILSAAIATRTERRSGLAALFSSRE
T1 sequence (P07648 whole entry): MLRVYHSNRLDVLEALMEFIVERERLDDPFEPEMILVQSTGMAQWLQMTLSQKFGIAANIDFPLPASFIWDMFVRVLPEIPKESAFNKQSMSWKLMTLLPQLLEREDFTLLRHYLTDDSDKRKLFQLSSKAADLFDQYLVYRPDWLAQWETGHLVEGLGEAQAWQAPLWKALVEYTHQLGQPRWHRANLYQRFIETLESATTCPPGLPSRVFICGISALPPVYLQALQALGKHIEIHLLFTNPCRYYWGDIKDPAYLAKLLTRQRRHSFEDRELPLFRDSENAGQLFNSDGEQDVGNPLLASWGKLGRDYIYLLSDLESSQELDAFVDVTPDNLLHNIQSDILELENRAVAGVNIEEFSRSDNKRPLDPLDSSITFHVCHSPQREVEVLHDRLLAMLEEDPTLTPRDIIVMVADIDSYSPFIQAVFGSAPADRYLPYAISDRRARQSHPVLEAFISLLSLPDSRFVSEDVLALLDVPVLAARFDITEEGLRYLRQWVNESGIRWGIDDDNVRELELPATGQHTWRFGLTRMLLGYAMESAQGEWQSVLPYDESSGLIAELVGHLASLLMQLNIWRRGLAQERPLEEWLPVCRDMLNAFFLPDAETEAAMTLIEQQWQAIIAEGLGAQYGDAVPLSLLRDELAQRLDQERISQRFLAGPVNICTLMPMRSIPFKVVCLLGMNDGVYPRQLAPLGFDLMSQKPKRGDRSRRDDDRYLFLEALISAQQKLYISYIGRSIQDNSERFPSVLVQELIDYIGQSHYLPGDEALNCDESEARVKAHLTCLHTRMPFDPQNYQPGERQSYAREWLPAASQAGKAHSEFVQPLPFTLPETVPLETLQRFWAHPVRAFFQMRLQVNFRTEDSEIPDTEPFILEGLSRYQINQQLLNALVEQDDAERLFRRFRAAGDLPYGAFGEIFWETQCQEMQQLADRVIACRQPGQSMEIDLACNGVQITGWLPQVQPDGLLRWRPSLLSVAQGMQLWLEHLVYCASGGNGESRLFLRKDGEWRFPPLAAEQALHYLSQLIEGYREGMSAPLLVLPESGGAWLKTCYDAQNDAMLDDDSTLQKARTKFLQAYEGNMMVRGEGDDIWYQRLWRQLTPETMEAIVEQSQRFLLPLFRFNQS
T1 sequence (P08394 whole entry): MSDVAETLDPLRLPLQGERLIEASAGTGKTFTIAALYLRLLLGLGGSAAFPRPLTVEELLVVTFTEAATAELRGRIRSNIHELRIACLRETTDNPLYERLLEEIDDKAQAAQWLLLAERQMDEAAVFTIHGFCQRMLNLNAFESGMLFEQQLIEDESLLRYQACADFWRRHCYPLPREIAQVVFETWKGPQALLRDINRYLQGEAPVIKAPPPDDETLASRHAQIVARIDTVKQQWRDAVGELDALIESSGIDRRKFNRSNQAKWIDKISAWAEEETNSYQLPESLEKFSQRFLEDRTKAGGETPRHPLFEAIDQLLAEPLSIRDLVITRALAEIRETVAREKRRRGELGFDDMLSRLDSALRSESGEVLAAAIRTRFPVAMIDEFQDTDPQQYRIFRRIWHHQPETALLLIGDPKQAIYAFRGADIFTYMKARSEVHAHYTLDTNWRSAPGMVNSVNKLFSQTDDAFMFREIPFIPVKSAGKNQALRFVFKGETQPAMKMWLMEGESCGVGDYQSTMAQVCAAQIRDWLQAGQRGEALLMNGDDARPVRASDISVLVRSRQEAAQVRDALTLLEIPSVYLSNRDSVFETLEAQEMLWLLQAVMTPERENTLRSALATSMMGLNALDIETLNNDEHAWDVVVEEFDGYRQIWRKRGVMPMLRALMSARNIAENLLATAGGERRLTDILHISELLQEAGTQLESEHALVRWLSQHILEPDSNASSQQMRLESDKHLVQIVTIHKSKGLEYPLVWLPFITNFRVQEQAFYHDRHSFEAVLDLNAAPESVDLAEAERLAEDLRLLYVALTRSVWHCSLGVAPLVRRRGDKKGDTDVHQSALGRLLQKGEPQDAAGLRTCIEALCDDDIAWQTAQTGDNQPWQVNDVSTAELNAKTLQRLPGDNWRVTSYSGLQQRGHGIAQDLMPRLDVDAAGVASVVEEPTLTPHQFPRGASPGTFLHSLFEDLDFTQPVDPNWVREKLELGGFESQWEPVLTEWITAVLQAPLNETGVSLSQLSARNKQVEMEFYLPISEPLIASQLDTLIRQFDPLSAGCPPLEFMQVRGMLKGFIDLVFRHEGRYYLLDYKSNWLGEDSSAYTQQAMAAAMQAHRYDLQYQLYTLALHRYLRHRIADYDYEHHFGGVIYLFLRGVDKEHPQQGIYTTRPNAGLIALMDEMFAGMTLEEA
The assay is described as follows: RecBCD inhibition via phage-restricted bacterial growth – absorbance, V66 E. coli, mutant T4 phage, counter-screen for AddAB inhibitor project, dose response (AID 492957). Type of assay: functional, cell-based, Escherichia coli str. K-12 substr. MG1655.

The nature of assay [2]: non-specific 3'UTR reporter inhibition in Clone20-Shn3RL – cell-based, Renilla luciferase, cherry-picked, counter-screen for Shn3 inhibitor project, dose response (AID 624133). Type of assay: functional.
Another assay deals with Cytochrome P450 2C9 (Homo sapiens, UniProt P11712).
The next assay relates to BJ. As to the kind of experiment: BJ-TERT fibroblast viability loss – cell-based, RAS-independent, luminescence, dose response (AID 1933). In kind it is functional. The following applies: Homo sapiens.

Cytochrome P450 2C9, sequence (P11712 whole entry): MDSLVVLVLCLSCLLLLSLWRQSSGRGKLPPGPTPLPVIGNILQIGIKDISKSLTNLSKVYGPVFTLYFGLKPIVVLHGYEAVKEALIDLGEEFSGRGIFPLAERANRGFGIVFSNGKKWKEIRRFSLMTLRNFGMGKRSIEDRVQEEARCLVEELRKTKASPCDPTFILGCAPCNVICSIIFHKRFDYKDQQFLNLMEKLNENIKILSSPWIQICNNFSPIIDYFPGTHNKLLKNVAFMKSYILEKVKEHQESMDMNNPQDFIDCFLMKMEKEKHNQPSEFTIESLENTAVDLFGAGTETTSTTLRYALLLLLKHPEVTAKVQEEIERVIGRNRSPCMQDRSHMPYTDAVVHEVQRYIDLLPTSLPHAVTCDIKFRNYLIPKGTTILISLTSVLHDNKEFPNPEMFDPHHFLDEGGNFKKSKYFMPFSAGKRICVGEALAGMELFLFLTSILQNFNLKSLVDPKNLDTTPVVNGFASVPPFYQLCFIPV
Small ubiquitin-related modifier 2, sequence (P61956 whole entry): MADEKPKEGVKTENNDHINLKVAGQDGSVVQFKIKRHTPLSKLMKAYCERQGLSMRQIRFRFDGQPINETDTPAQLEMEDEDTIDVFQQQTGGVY

For `COc1ccc(NS(=O)(=O)c2ccc3c(c2)[C@H]2C=CC[C@H]2[C@@H](c2ccc(C(=O)O)cc2)N3)cc1`, the IC50 in assay [1] was 5.81 µM (active).
Regarding `CCC(=O)NC(c1ccc(OC)cc1)c1cc(Cl)c2cccnc2c1O` (stereo not given), the IC50 at Exodeoxyribonuclease V was > 119 µM (inactive).
Regarding `Cn1nc(-c2ccccn2)nc2c(=O)n(C)c(=O)nc1-2`, the AC50 in assay [2] was 2.96 µM (active).
For `CCCCCCCCCCn1c2c(c(=N)c3c1CCC3)CCC2`, on Cytochrome P450 2C9, the AC50 was 20 µM (inconclusive). Moreover, the EC50 in the assay on BJ was 3.26 µM (inconclusive).
